From patent US12616697B2, “Methods of treatment with myosin modulator” (MyoKardia, Inc., priority 2020, dated 2026)

Test system: subjects with symptomatic non-obstructive HCM (nHCM)
Assay: […]-HCM Phase 2 randomized, double-blind, placebo-controlled, concentration-guided study
Type: in vivo, human
Set-up: Overall KCCQ Summary Score, mean change / Clinical KCCQ Summary Score, mean change / Overall KCCQ Summary Score / Clinical KCCQ Summary Score: scale not given here
Conditions: for LVEF, mean change: Week 16
Excerpt: This is a Phase 2 trial designed to assess the safety and tolerability of a range of exposures over 16 weeks of treatment in subjects with symptomatic, non-obstructive HCM. All study subjects were required to be diagnosed with non-obstructive HCM, with left ventricular wall thickness either ≥15 mm or ≥13 mm with a family history of HCM, LVEF≥55%, NYHA classifications of Class II or III, and NT-proBNP levels of greater than 300 pg/mL at rest. Baseline characteristics, such as age, weight, gender, pathogenic mutation status, background beta blocker use, NYHA classification and exercise capacity were approximately evenly distributed between active and placebo arms.
This double-blind study enrolled 59 individuals with nHCM (Left ventricular outflow tract gradient<30 mmHg; resting or provoked), NYHA Class II or III, and LVEF≥55%. Subjects were randomized 1:1:1 to one of two target plasma drug concentrations (Group 1: ˜200 ng/mL and Group 2: ˜500 ng/mL) or placebo for 16 weeks, followed by an 8-week washout. […] Predefined criteria, including LVEF (LVEF≤45%), guided study drug discontinuation if indicated. Cardiopulmonary exercise testing was performed at baseline and Week 16 to assess the impact on exercise capacity.
Dose adjustments will be based on PK parameters. Assessments include safety, standardized cardiopulmonary exercise testing (CPET) with measurement of peak oxygen consumption, echocardiography to evaluate left ventricular ejection fraction (LVEF) and parameters of diastolic function, symptoms, quality of life, daily step counts, and NT-proBNP at rest and after exercise. In addition, subjects may consent to hypertrophic cardiomyopathy genotyping and pharmacogenetic sampling.
Cardiac Troponin I levels were evaluated on plasma and serum samples of subjects at baseline and at various time points in the trial (Abbott Architect Stat Troponin-I assay (Ref. 2K41)). Cardiac Troponin T levels were evaluated on plasma and serum samples of subjects at baseline and at various time points in the trial (Roche Elecsys Troponin T hs assay) (Ref. 08469873190) performed on a cobas e 801 analyzer). NT-proBNP levels were evaluated on plasma samples using the Roche Elecsys proBNPII assay (Ref. 07027664190) on a cobas e 801 analyzer.
Subjects were randomized via an interactive response system to 3 groups in a 1:1:1 ratio: 2 active treatment groups and 1 matching placebo.
5 mg QD was used as the starting dose for the study. All subjects in the active treatment groups started on 5 mg QD. […] PK modeling was used to guide blinded dose adjustment at the Week 6 visit, based on the plasma concentrations collected at Week 4. Subjects in the placebo group underwent the same assessments in order to preserve the blind. […] Subjects were instructed to take the drug under fasting conditions, at approximately the same time each day, and with 8 ounces of water.
To achieve the target concentration, if a subject's Week 4 concentration was >450 ng/mL, the subject's dose was decreased to 2.5 mg QD; if Week 4 concentration was 110-450 ng/mL, the dose was maintained at 5 mg QD; and if Week 4 concentration was <110 ng/mL, the dose was increased to 10 mg QD.
Subjects were monitored for adverse events (AE), including high blood plasma concentration, systolic dysfunction, QT prolongation, and LVEF decrease. If any of the following thresholds were hit PK 1000 or more, QTcF 500, or LVEF 45%, the subjects were discontinued on drug. Specifically, high blood plasma concentration was defined as blood plasma concentration greater than or equal to 1000 ng/mL; QT prolongation was defined as QTcF greater than or equal to 500 ms; and LVEF shortening was defined as LVEF less than or equal to 45% (including serious adverse event (SAE) for LVEF less than or equal to 30%).
Efficacy and pharmacodynamics assessments were also made. Resting transthoracic echocardiography measurements were taken at Weeks 4, 8, 12 and 16. […]

[1] = Elevated Troponin subgroup, Mean Difference vs placebo
[2] = Elevated Troponin subgroup, mean change from baseline
[3] = Subgroup with Elevated E/e′ at Baseline, Difference mavacamten vs placebo
[4] = Subgroup with Elevated E/e′ at Baseline, pooled, mean change from baseline

Which “Composite Functional Endpoint: Met endpoint, either type, %” value (“Composite Functional Endpoint … %” below) (Combined Subgroup (elevated cTnI or E/e′ average >14), Pooled) does the source give for CC(C)n1c(=O)cc(N[C@@H](C)c2ccccc2)[nH]c1=O [mavacamten, (S)-3-Isopropyl-6-((1-phenylethyl)amino)pyrimidine-2, 4(1H,3H)-dione] here?
The value was 33%.

And the “Composite Functional Endpoint … %” value (Combined Subgroup, Group 1 ~200 ng/mL)?
Its value is “(33.3) %”.

And the “Composite Functional Endpoint … %” value (Combined Subgroup, Group 2 ~500 ng/mL)?
Its value is “(33.3) %”.

What about the “Clinical KCCQ Summary Score” value [1] of the same compound?
Its value is 8.8.

And the “NYHA Class” value [1]?
The value was −0.3.

What about the “Peak VO2” value [1] of the same compound?
Its value is 2.70 mL/min/kg.

And the “Serum Troponin I (cTnI)” value [1]?
The value was -0.083 ng/mL.

What about the “Clinical KCCQ Summary Score” value [2] of the same compound?
Its value is 6.9.

And the “NYHA Class” value [2]?
The value was −0.5.

What about the “Overall KCCQ Summary Score” value [2] of the same compound?
Its value is 6.4.

What about the “Serum Troponin I (cTnI)” value [2] of the same compound?
The value was -0.12 ng/mL.

And the “Clinical KCCQ Summary Score, mean change” value (ITT, Group 1 ~200 ng/mL)?
Its value is 0.11.

What about the “Lateral e′, mean change” value (ITT, Group 1 ~200 ng/mL) of the same compound?
Its value is 0.34 cm/s.

And the “NYHA Class, mean change” value (ITT, Group 1 ~200 ng/mL)?
The value was −0.6.

And the “Overall KCCQ Summary Score, mean change” value (ITT, Group 1 ~200 ng/mL)?
The value was 0.35.

And the “Peak VO2, mean change” value (ITT, Group 1 ~200 ng/mL)?
The value was 0.36 mL/min/kg.

What about the “Septal e′, mean change” value (ITT, Group 1 ~200 ng/mL) of the same compound?
The value was 0.64 cm/s.

What about the “LVEF, mean change” value (ITT, Group 1 ~200 ng/mL) of the same compound?
Its value is −2.30%.

What about the “LVEDV, mean change” value (ITT, Group 2 ~500 ng/mL) of the same compound?
Its value is 6.50 mL.

What about the “NYHA Class, mean change” value (ITT, Group 2 ~500 ng/mL) of the same compound?
Its value is −0.3.

What about the “Peak VO2, mean change” value (ITT, Group 2 ~500 ng/mL) of the same compound?
The value was 0.12 mL/min/kg.

What about the “Septal e′, mean change” value (ITT, Group 2 ~500 ng/mL) of the same compound?
Its value is 1.60 cm/s.

What about the “Lateral e′, mean change” value (ITT, Pooled) of the same compound?
Its value is 0.94 cm/s.

And the “NYHA Class, mean change” value (ITT, Pooled)?
Its value is −0.4.

And the “Peak VO2, mean change” value (ITT, Pooled)?
Its value is 0.22 mL/min/kg.

And the “LVEF, mean change” value (ITT, Pooled)?
The value was −4.1%.

What about the “Clinical KCCQ Summary Score” value [3] of the same compound?
The value was 4.1.

And the LVEDVi [3]?
Its LVEDVi is 3.9 mL/m^2.

What about the “NYHA Class” value [3] of the same compound?
Its value is 0.0.

What about the “Overall KCCQ Summary Score” value [3] of the same compound?
Its value is 0.4.

And the “Peak VO2” value [3]?
The value was 1.9 mL/min/kg.

What about the cTnI [3] of the same compound?
The cTnI was -0.07 ng/mL.

What about the “Clinical KCCQ Summary Score” value [4] of the same compound?
The value was 4.6.

What about the LVEDVi [4] of the same compound?
The LVEDVi was 2.8 mL/m^2.

What about the “NYHA Class” value [4] of the same compound?
The value was −0.4.

And the “Overall KCCQ Summary Score” value [4]?
Its value is 4.7.

And the “Peak VO2” value [4]?
The value was 1.2 mL/min/kg.

And the cTnI [4]?
The cTnI was -0.09 ng/mL.

And the “Serious adverse events (SAEs), subjects” value (subjects receiving mavacamten, placebo 21%)?
Its value is 10%.

And the “participants with a decrease in LVEF to ≤45%, %” value (weeks 11-12, active treatment)?
Its value is 12.5%.
